# PubChem BioAssay (NCI)
#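 These data come from cells grown in 96-well plates and exposed to compound for 48 hours at five concentrations. The concentration for full growth arrest is given as TGI.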
# Experiments:
# Assay in all cases: NCI tumour cell line growth inhibition, 48 h
# [1] = system: ACHN renal
# [2] = system: HL-60(TB) leukemia
# [3] = system: MOLT-4 leukemia
# [4] = system: HS 578T breast
# [5] = system: OVCAR-5 ovarian
# [6] = system: SK-MEL-28 melanoma
# [7] = system: SN12C renal
# [8] = system: SK-MEL-5 melanoma
# [9] = system: A498 renal
# [10] = system: KM12 colon
# [11] = system: IGROV1 ovarian
# [12] = system: HCC-2998 colon
# [13] = system: M14 melanoma
# [14] = system: LOX IMVI melanoma
# [15] = system: UACC-257 melanoma
# [16] = system: MDA-MB-231 breast
# [17] = system: NCI/ADR-RES ovarian
SMILES,TGI [1],TGI [2],TGI [3],TGI [4],TGI [5],TGI [6],TGI [7],TGI [8],TGI [9],TGI [10],TGI [11],TGI [12],TGI [13],TGI [14],TGI [15],TGI [16],TGI [17]
CC(C)(C)NNc1c([N+](=O)[O-])cnn(-c2ccccc2)c1=O,16.4 µM,5.24 µM,4.91 µM,26.1 µM,15.5 µM,5.79 µM,6.35 µM,11.1 µM,> 100 µM,24.5 µM,38.6 µM,11.8 µM,4.88 µM,3.32 µM,11.4 µM,–,–
CC1OC(OP(=O)(OCc2ccccc2)OCc2ccccc2)C(OC(=O)c2ccccc2)C(OC(=O)c2ccccc2)C1I (stereo not given),> 100 µM,49.4 µM,59.1 µM,–,> 100 µM,> 100 µM,52.5 µM,> 100 µM,–,> 100 µM,> 100 µM,> 100 µM,> 100 µM,> 100 µM,> 100 µM,–,–
C[C@H](NC(=O)OC1C2C=CC(O)C1CC2)c1ccccc1 (stereo not given in full),> 100 µM,> 100 µM,> 100 µM,–,> 100 µM,> 100 µM,> 100 µM,> 100 µM,> 100 µM,> 100 µM,> 100 µM,> 100 µM,> 100 µM,> 100 µM,> 100 µM,–,–
CCOc1ccc(NC(=O)C2=C(C)NC(C)=C(C(=O)Nc3ccc(OCC)cc3)C2c2ccc([N+](=O)[O-])cc2)cc1,87.4 µM,52.7 µM,66.9 µM,–,86.9 µM,> 100 µM,> 100 µM,74.3 µM,66.2 µM,> 100 µM,> 100 µM,52.7 µM,> 100 µM,> 100 µM,> 100 µM,–,–
CC1(C)COC(c2cccc(C3=NC(C)(C)CO3)c2)=N1,> 100 µM,–,> 100 µM,–,> 100 µM,> 100 µM,–,> 100 µM,–,> 100 µM,> 100 µM,> 100 µM,> 100 µM,> 100 µM,> 100 µM,> 100 µM,> 100 µM
CCC1OC2C(CC=C(C)C)=C3OC(C)(O)C(C)(CC)C(O)C3=C3OC(=O)C=C1C32 (stereo not given),> 100 µM,–,> 100 µM,–,> 100 µM,> 100 µM,–,> 100 µM,> 100 µM,> 100 µM,–,> 100 µM,> 100 µM,35.9 µM,> 100 µM,75.5 µM,> 100 µM
CC(C)(C)[C@@H]1NC(=O)CN1C(=O)OCc1ccccc1,> 100 µM,> 100 µM,> 100 µM,> 100 µM,> 100 µM,> 100 µM,> 100 µM,> 100 µM,> 100 µM,> 100 µM,> 100 µM,> 100 µM,> 100 µM,> 100 µM,> 100 µM,> 100 µM,> 100 µM
N#Cc1nn(-c2ccc(Cl)cc2)c(N)c2c(=N)n3nc(-c4ccccc4)cc3nc12,> 100 µM,> 100 µM,> 100 µM,–,–,–,> 100 µM,–,> 56.7 µM,> 100 µM,> 32 µM,0.0134 µM,> 100 µM,> 37.9 µM,> 100 µM,–,–
N#CC(C(=O)c1ccccc1F)c1nc2cc(C(F)(F)F)ccc2s1 (stereo not given),94.6 µM,–,> 100 µM,–,89.6 µM,> 100 µM,67.2 µM,52.3 µM,45.8 µM,> 100 µM,> 100 µM,–,–,36.7 µM,> 100 µM,> 100 µM,> 100 µM
COC(=O)CP1(=O)OC2C(C3CCC2(C)C3(C)C)N1c1cc(C(F)(F)F)cc(C(F)(F)F)c1 (stereo not given),> 100 µM,–,59 µM,–,> 100 µM,> 100 µM,–,> 100 µM,> 100 µM,54.7 µM,> 100 µM,55.2 µM,> 100 µM,49 µM,> 100 µM,43.7 µM,55.9 µM
CCOC(=O)c1ccc(N=C/C=C(\Nc2ccc(C(=O)OCC)cc2)c2ccc3ccccc3c2)cc1,> 100 µM,70.8 µM,16.1 µM,96.3 µM,> 100 µM,61.1 µM,58.6 µM,34.7 µM,> 100 µM,48.2 µM,> 100 µM,–,59 µM,34.4 µM,92.3 µM,80.6 µM,70.3 µM
COc1ccc(NS(=O)C2CCCCC2)cc1 (stereo not given),> 100 µM,> 100 µM,> 100 µM,> 100 µM,> 100 µM,> 100 µM,> 100 µM,> 100 µM,–,> 100 µM,> 100 µM,> 100 µM,> 100 µM,> 100 µM,> 100 µM,> 100 µM,> 100 µM
CC(C)(C)c1cc(C2COC(=O)COCCOCC(=O)OCCOCCO2)cc(C(C)(C)C)c1O (stereo not given),37.2 µM,> 100 µM,> 100 µM,77.7 µM,54.8 µM,> 100 µM,44.6 µM,> 100 µM,> 100 µM,> 100 µM,> 100 µM,43 µM,> 100 µM,> 31.6 µM,> 100 µM,> 100 µM,> 100 µM
COc1cc(/C=C\c2ccc(SC)cc2)cc(OC)c1OC,> 100 µM,0.463 µM,28.9 µM,> 100 µM,> 18.5 µM,> 100 µM,> 100 µM,2.72 µM,> 54.1 µM,2.8 µM,> 17.1 µM,2.17 µM,> 100 µM,45.2 µM,–,> 100 µM,> 100 µM
CCOC(=O)c1c(OCC)[nH]c(=O)c(C(c2ccc(F)cc2)c2c(O)c(C(=O)OCC)c(OCC)[nH]c2=O)c1O,31.7 µM,54.3 µM,71 µM,> 100 µM,> 100 µM,27 µM,30.2 µM,25.9 µM,26.2 µM,37.7 µM,30.3 µM,39 µM,63.3 µM,33.1 µM,37.3 µM,29.8 µM,> 100 µM
CC(=O)OCCOCNC(=S)N/N=C(\C)c1ccco1,> 100 µM,–,–,–,> 100 µM,> 100 µM,> 100 µM,> 100 µM,> 100 µM,> 100 µM,> 100 µM,> 100 µM,> 100 µM,> 100 µM,> 100 µM,–,–
CCOC(=O)Cc1csc(/N=C\c2c(O)c3ccccc3oc2=O)n1,> 100 µM,7.43 µM,42.7 µM,> 100 µM,> 100 µM,> 100 µM,–,52.6 µM,–,> 100 µM,> 100 µM,–,> 100 µM,> 100 µM,74.5 µM,–,64 µM
CCC(=O)O[C@@H]1C2C(OC(C)=O)C34COC(C)([C@@H]3C3C(C[C@]3(C)OC(C)=O)[C@@H](OC(=O)c3ccccc3)C4=O)[C@H](OC(C)=O)[C@@]2(OC(C)=O)C[C@@H]1C (stereo not given in full),> 100 µM,30 µM,> 100 µM,–,> 100 µM,> 100 µM,> 100 µM,51 µM,–,> 100 µM,40 µM,> 100 µM,> 100 µM,> 100 µM,> 100 µM,–,–
O=Cc1cc(O)c(O)c(O)c1-c1c(C=O)cc(O)c(O)c1O,> 100 µM,> 100 µM,> 100 µM,–,> 100 µM,> 100 µM,> 100 µM,> 100 µM,> 100 µM,> 100 µM,> 100 µM,> 100 µM,> 100 µM,> 100 µM,> 100 µM,–,–
CCCCCCCCCCCCCC(=O)OCC1OC(OC)C(NC(=O)N(CCCl)N=O)C(O)C1O (stereo not given),49.1 µM,–,29.4 µM,–,91.1 µM,59.4 µM,76.3 µM,45.1 µM,65.6 µM,64.4 µM,> 100 µM,65.6 µM,39.6 µM,25.7 µM,30.2 µM,–,–
CCOC(=O)[C@H]1Nc2ccc(O)cc2C2c3ccccc3CC21 (stereo not given in full),> 100 µM,–,> 100 µM,–,> 100 µM,98 µM,> 100 µM,> 100 µM,> 100 µM,> 100 µM,> 100 µM,> 100 µM,> 100 µM,> 100 µM,> 100 µM,–,–
Cc1c(Cl)cccc1NC(=O)C(=O)C1C(=O)NC(=O)NC1=O,> 100 µM,> 100 µM,> 100 µM,–,> 100 µM,> 100 µM,> 100 µM,> 100 µM,> 100 µM,> 100 µM,> 100 µM,> 100 µM,> 100 µM,> 100 µM,> 100 µM,–,–
COC(=O)c1nc2c(C)c(O)c(O)c([C@H](C)CCC=C(C)C)c2o1,53.8 µM,45.6 µM,> 100 µM,87.4 µM,> 100 µM,> 100 µM,–,28.4 µM,39 µM,67.4 µM,48.1 µM,96.2 µM,> 100 µM,> 100 µM,78 µM,> 100 µM,> 100 µM
OC(Cn1cncn1)(Cn1cncn1)c1ccc(Cl)cc1Cl,> 100 µM,> 100 µM,> 100 µM,–,> 100 µM,> 100 µM,> 100 µM,> 100 µM,> 100 µM,> 100 µM,> 100 µM,–,> 100 µM,> 100 µM,> 100 µM,–,–
